US12612408B2, “Pyrazolone-fused pyrimidine compound, preparation method for same and applications thereof” (SHANGHAI PHARMACEUTICALS HOLDING CO., LTD., priority 2019, dated 2026)
Each block holds one molecule with its values, some of them ahead of it.

Assays:
[1] = biological target: T1, WEE1 kinase (Homo sapiens, UniProt P30291); assay: Inhibitory effect of compound on WEE1 kinase in vitro (ELISA); format: biochemical; settings: ATP concentration of Km
T1 construct: purchased CarnaBiosciences, Inc. 05-177
Description: The tested compounds were screened on WEE1 kinase with ATP concentration of Km by ELISA. Compounds were screened on WEE1 kinase to evaluate the kinase inhibitory activity of the tested compounds. In the detection process, the initial concentration of the tested compounds was all selected as 100 nM, and each compound was selected with 6 gradient dilution concentrations, the gradient dilution ratio was 4-fold, and two replicate wells were detected for each concentration, MK1775 was used as the standard control.
WEE1, purchased from CarnaBiosciences, Inc., Item No. 05-177; dimethyl sulfoxide, purchased from Sigma-Aldrich, Item No. D8418; ATP, purchased from Sigma-Aldrich, Item No. A7699; DTT solution, purchased from Sigma-Aldrich, Item No. 43816; protein tyrosine kinase (PTK) substrate (poly-Glu-Tyr), purchased from Sigma-Aldrich, Item No. P4476; P-Tyr (PY99), purchased from Santa Cruz, Item No. sc-7020; Anti-mouse IgG HRP-linked Antibody, purchased from Santa Cruz, Item No. 7076S; TMB liquid Substrate System, purchased from Sigma-Aldrich, Item No. T0440; Costar Stripwell Microplate No Lid 1×8 Flat Bottom, Certified High Binding, purchased from Sigma-Aldrich, Item No. 42592; 96-well compound plate, purchased from Thermo Scientific, Item No. 267245.
• 1. Coating substrate: 1) An appropriate volume of substrate storage solution protein tyrosine kinase (PTK) substrate (poly-Glu-Tyr) was taken, diluted 10 times with PBS, and the concentration was diluted from […]. The mixture was added to a high adsorption 96-well plate at 125 μL per well. The plate was placed in an incubator at 37° C. for overnight coating. 2) After 24 hours, the 96-well plate was taken out, the liquid in the 96-well plate was poured out, cleaned with washing buffer for 3 times, and the incubator at 37° C. was inverted and dried for 2 hours. • 2. Compound preparation and transfer: 1) compound dilution: 10 mM of the test compound storage solution was taken, the compound in 96-well compound plate was diluted with DMSO in multiple steps to obtain the initial concentration of 100× compound as the first concentration, and then DMSO was used for 4-fold gradient dilution, for a total of 6 concentrations; after that, 2 μL of the gradient dilution solution was added to 48 μL of 1× reaction buffer respectively to prepare 4× compound; 2) 4× compounds were transferred: 10 μL of 4× compounds from the 96-well compound plate configured in the previous step were transferred into the dried high adsorption 96-well plate; 10 μL of the following liquids were added to the compound-free control wells and ATP-control wells: 2 μL of DMSO was added to 48 μL of 1× reaction buffer. • 3. Enzyme reaction stage: 1) WEE1 kinase and ATP were prepared into 2× enzyme solution and 4×ATP solution respectively with 1× reaction buffer. In this screening, the final concentration of WEE1 kinase was: 0.15 ng/μL and the final concentration of ATP was: […]; 2) 20 μL of enzyme solution of 2 was added to the high adsorption 96-well plate; 3) 10 μL of 4×ATP solution was added to the high adsorption 96-well plate and 10 μL of 1× reaction buffer was added to the ATP-control group; 4) the plate was placed in HERAEUS Multifuge X1R centrifuge at 2000 rpm for 20 s and then placed at room temperature and reacted for 60 min. • 4. Reaction termination stage: 1) the reaction mixture in the plate was poured out, 200 μL of washing buffer was added to each well, and washed for 5 times; the primary antibody P-Tyr (PY99) (dilution ratio 1:2000) was added, 100 μL per well, at room temperature for 30 min. 2) The primary antibody in the plate was poured out, 200 μL of washing buffer was added to each well, and washed for 5 times; the second antibody Anti-mouse IgG HRP-linked Antibody (dilution ratio 1:2000) was added, 100 μL per well, at room temperature for 30 min.

[2] = Bioavailability test in vivo in mice (pharmacokinetics, iv and intragastric); parameters: species or system ICR mice
Description: 404.6 μL of DMSO was added to the compound powder of the present disclosure until the compound was completely dissolved, and 50 mg/mL mother liquor was prepared in a clarified state.
The compound of the present disclosure: 24 μL of mother liquor was accurately measured, diluted to 4 mL according to the ratio of 0.9% normal saline:PEG400=8:2, the preparation concentration was 0.3 mg/mL, the solution was in a clarified state, and it was used as intravenous administration solution. In addition, 80 μL mother liquor was accurately measured, and 0.5% CMC-Na was added to 8 mL to grind it into a uniform suspension with a concentration of 0.5 mg/mL, which was used as intragastric administration solution.
(§1) Intravenous group: 24 ICR mice, 20±2 g, were given the intravenous administration solution of the compound of the present disclosure by intravenous injection, with the volume of 10 mL/kg, with the dose of 3 mg/kg, the blood was taken from the fundus venous plexus of mice, 2, 5, 15, 30, 60, 90, 120, 240, 360, 480, 600 and 1440 minutes before and after administration.
as §1, with “Intragastric group:” for “Intravenous group:”, “the intragastric” for “the intravenous”, “by intragastric” for “by intravenous”, “of 20” for “of 10”, “of 10” for “of 3”, “mice,” for “mice, 2,”
Blood sample was centrifuged at 8000 rpm for 5 min, and the plasma was stored in a centrifuge tube at −20° C. for later use.
300 μL of acetonitrile containing internal standard (Propranolol, 25 ng/mL) was added to 50 μL of plasma samples to precipitate protein, vortexed for 10 min, 6000 g, 4° C., centrifuged for 10 min; the supernatant before intravenous injection for 1 hour was taken, diluted 10 times with acetonitrile containing internal standard, the rest supernatant was kept undiluted, centrifuged for 10 min again at 6000 g, 4° C., and the supernatant was taken and then injected into a 96-well plate.
(§2) Dose; peak concentration: Cmax; peak time: Tmax; area under the drug-time curve from AUClast 0 to time t; half-life: T1/2; mean retention time: MRT; clearance: Cl; apparent distribution volume: Vz; steady-state distributed volume: Vss; absolute bioavailability: F.
The pharmacokinetic parameters of the compound in mice after intravenous injection or intragastric administration were shown in Table 4 and Table 5 below.

[3] = Bioavailability test in vivo in cynomolgus monkey (pharmacokinetics, IV and PO); settings: cynomolgus monkeys
Description: Twelve male Non-Naïve cynomolgus monkeys were purchased from GuangxiGuidong Primate Development Experiment Co. LTD.
(§3) 54.31 mg of I-8-1 was accurately weighed, and 1.08 mL of DMSO was added, then the mixture was vortexed for 1 min, sonicated for 15 min, and then diluted to 36 mL according to the ratio of 10% HP-β-cyclodextrin (prepared by normal saline): PEG=8:2, vortexed for 1 min. A colorless clarified administration solution (the pH value was about 7) at a concentration of 1.5 mg/mL was prepared for intravenous administration to Group 1.
300.9 mg of I-8-1 was accurately weighed, and 75 mL of 0.5% CMC-Na was added, the mixture was fully ground and stirred for 5 min. A white suspension (the pH value was about 7) at a concentration of 4 mg/mL was prepared for oral administration to Group 2.
as §3, with “54.05 mg” for “54.31 mg”, “of AZD1775” for “of I-8-1”, “then he” for “then the”, “of 10%-D-cyclodextrin” for “of 10% HP-β-cyclodextrin”, “A yellow” for “A colorless”, “Group 3.” for “Group 1.”
300.7 mg of AZD1775 was accurately weighed, and 75 mL of 0.5% CMC-Na was added, the mixture was fully ground and stirred for 5 min. A yellow suspension (the pH value was about 7) at a concentration of 4 mg/mL was prepared for oral administration to Group 4.
Before administration, all animals were fasted overnight (approximately 12 hours) and fed as required and administered according to the table below.
Intravenous group: before administration (0 h), 0.033 h, 0.083 h, 0.25 h, 0.5 h, 1 h, 1.5 h, 2 h, 4 h, 6 h, 8 h, 12 h, 24 h after administration.
Oral group: before administration (0 h), 0.083 h, 0.25 h, 0.5 h, […], 2 h, 4 h, 6 h, 8 h, 12 h, 24 h after administration.
Blood samples were collected by puncture through lower limb vein or other suitable blood vessels at 1 mL/time point (3 mL of blood samples were collected from each animal before administration), anticoagulated with heparin sodium, and placed on ice after collection. Plasma was separated at 2200 g/min, 10 min, 2-8° C., plasma samples were stored in a −80° C. refrigerator before being transferred to the client. Plasma samples are stored in dry ice and transferred to the client. The final treatment of the sample will be recorded in the experimental record.
300 μL of acetonitrile was added to 50 μL of plasma samples containing internal standard (Propranolol, 25 ng/mL) to precipitate protein, vortexed for 10 min, centrifuged at 6000 g for 10 min, after I-8-1&AZD1775 intravenous injection group was diluted 10 times with internal standard acetonitrile (Propranolol, 25 ng/mL) at the time point before 1 hour, the remaining supernatant was not diluted, centrifuged again at 6000 g at 4° C. for 10 min, and the supernatant was taken and injected into a 96 well plate.
as §2
The pharmacokinetic parameters of the compound in cynomolgus monkeys after intravenous injection or intragastric administration were shown in Table 6 below.

[4] = ICR, mouse, plasma, iv, 3 mg/kg
[5] = ICR, mouse, plasma, po (intragastric), 10 mg/kg
[6] = male, cynomolgus monkey, plasma, iv, 3 mg/kg
[7] = male, cynomolgus monkey, plasma, po, 20 mg/kg, fasted

T1 sequence (P30291 whole entry): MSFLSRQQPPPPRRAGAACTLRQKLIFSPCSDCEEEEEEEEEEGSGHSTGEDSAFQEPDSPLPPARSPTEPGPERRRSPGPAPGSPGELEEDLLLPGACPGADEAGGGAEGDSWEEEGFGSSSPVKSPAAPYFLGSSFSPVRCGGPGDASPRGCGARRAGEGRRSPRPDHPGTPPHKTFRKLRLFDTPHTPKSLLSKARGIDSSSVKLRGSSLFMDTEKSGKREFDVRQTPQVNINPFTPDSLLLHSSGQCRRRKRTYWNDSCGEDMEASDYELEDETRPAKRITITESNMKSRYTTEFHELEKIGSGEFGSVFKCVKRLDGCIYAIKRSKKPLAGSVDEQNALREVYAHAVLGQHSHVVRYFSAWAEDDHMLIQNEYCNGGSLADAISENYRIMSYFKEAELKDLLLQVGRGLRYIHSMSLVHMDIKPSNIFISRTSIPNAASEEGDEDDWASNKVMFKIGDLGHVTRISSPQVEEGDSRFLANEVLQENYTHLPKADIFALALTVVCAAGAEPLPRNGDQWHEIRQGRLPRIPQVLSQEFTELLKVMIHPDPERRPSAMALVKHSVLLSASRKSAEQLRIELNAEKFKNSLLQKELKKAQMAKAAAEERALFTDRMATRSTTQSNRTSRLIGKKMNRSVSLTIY

- IC50 [1]: 2.05 nM
SMILES: C=CCn1c(=O)c2cnc(Nc3ccc(C4CC(N(C)C)C4)cc3)nc2n1-c1cccc(C(C)(C)O)n1 (centres unmarked) [Compound I-31, 2-allyl-6-((4-(3-(dimethylamino)cyclobutyl)phenyl)amino)-1-(6-(2-hydroxypropan-2-yl)pyridin-2-yl)-1,2-dihydro-3H-pyrazolo[3,4-d]pyrimidin-3-one]

- IC50 [1]: 4.58 nM
SMILES: C=CCn1c(=O)c2cnc(Nc3ccc(C4CCC(C(=O)O)CC4)cc3)nc2n1-c1cccc(C2(O)COC2)n1 (centres unmarked) [Compound I-40]

- IC50 [1]: 7.15 nM
SMILES: C=CCn1c(=O)c2cnc(Nc3ccc(C4CCC(C(=O)O)CC4)cc3)nc2n1-c1cccc(C(C)(C)O)n1 (centres unmarked) [Compound I-5, 4-(4-((2-allyl-1-(6-(2-hydroxypropan-2-yl)pyridin-2-yl)-3-oxo-2,3-dihydro-1H-pyrazolo[3,4-d]pyrimidin-6-yl)amino)phenyl)cyclohexane-1-carboxylic acid]

- IC50 [1]: 1.68 nM
SMILES: C=CCn1c(=O)c2cnc(Nc3ccc(C4CCC(N(C)C)CC4)cc3)nc2n1-c1cccc(C2(O)COC2)n1 (single isomer, unassigned) [Compound I-15-2]

- IC50 [1]: 2.08 nM
SMILES: C=CCn1c(=O)c2cnc(Nc3ccc(C4CCC(C(=O)OCC)CC4)cc3)nc2n1-c1cccc(C2(O)COC2)n1 (centres unmarked) [Compound I-39]

- IC50 [1]: 4.22 nM
SMILES: C=CCn1c(=O)c2cnc(Nc3ccc(C4CCC(NC)CC4)cc3)nc2n1-c1cccc(C2(O)COC2)n1 (centres unmarked) [Compound I-33]

- IC50 [1]: 3.3 nM
SMILES: C=CCn1c(=O)c2cnc(Nc3ccc(C4CCC(N(C)C(=O)C5CC5)CC4)cc3)nc2n1-c1cccc(C2(O)COC2)n1 (centres unmarked) [Compound I-34]

- IC50 [1]: 0.35 nM
SMILES: C=CCn1c(=O)c2cnc(Nc3ccc(C4CCC(N5CCCC5)CC4)cc3)nc2n1-c1cccc(C(C)(C)O)n1 (single isomer, unassigned) [Compound I-3-1]

- IC50 [1]: 6.76 nM
SMILES: C=CCn1c(=O)c2cnc(Nc3ccc(C4CCC(C(=O)N(C)C)CC4)cc3)nc2n1-c1cccc(C(C)(C)O)n1 (centres unmarked) [Compound I-6]

- Cmax [2, 4]: 774 ± 53.8 ng/mL
- MRT [2, 4]: 0.42 ± 0.02 h
- Tmax [2, 4]: 0.05 ± 0.03 h
- clearance [2, 4]: 183 mL/min/kg
- half-life [2, 4]: 0.65 ± 0.03 h
- Vd ([2]; ICR, mouse, plasma, iv, 3 mg/kg, iv, 3 mg/kg, read-out: Vss): 4.58 ± 0.44 L/kg
- Vd ([2]; ICR, mouse, plasma, iv, 3 mg/kg, iv, 3 mg/kg, read-out: Vz): 10.3 ± 1.12 L/kg
- bioavailability ([2]; ICR, mouse, plasma, po 10 mg/kg vs iv 3 mg/kg, read-out: F (absolute bioavailability)): 16.7%
- Cmax [2, 5]: 205 ± 124 ng/mL
- MRT [2, 5]: 4.33 ± 0.28 h
- Tmax [2, 5]: 0.33 ± 0.14 h
- half-life [2, 5]: 3.1 ± 0.22 h
- AUClast ([2]; iv, 3 mg/kg): 273.1 ± 21.34 (h) (ng/mL)
- AUClast ([2]; po (intragastric), 10 mg/kg): 151.7 ± 62.14 (h) (ng/mL)
- AUCextra ([3]; iv, 3 mg/kg): 47.62 ± 58.18 (h)*(ng/mL)
- AUClast ([3]; iv, 3 mg/kg): 4494 ± 1719 (h)*(ng/mL)
- AUCtot ([3]; iv, 3 mg/kg): 4542 ± 1777 (h)*(ng/mL)
- thalf ([3]; iv, 3 mg/kg): 2.78 ± 0.26 h
- AUCextra ([3]; po, 20 mg/kg, fasted): 8.46 ± 1.91 (h)*(ng/mL)
- AUClast ([3]; po, 20 mg/kg, fasted): 8155 ± 818.2 (h)*(ng/mL)
- AUCtot ([3]; po, 20 mg/kg, fasted): 8163 ± 819.7 (h)*(ng/mL)
- thalf ([3]; po, 20 mg/kg, fasted): 2.03 ± 1.22 h
- Vd ([3]; male, cynomolgus monkey, plasma, iv, 3 mg/kg, iv, 3 mg/kg, read-out: Vss): 4.33 ± 0.74 L/kg
- Vd ([3]; male, cynomolgus monkey, plasma, iv, 3 mg/kg, iv, 3 mg/kg, read-out: Vz): 2.84 ± 0.76 L/kg
- Cmax [3, 6]: 1200 ± 134 ng/mL
- MRT [3, 6]: 6.53 ± 2.51 h
- Tmax [3, 6]: 2.69 ± 4.6 h
- clearance [3, 6]: 12 mL/min/kg
- bioavailability ([3]; male, cynomolgus monkey, plasma, po 20 mg/kg vs iv 3 mg/kg, read-out: BA (absolute bioavailability)): 27.2%
- Cmax [3, 7]: 1630 ng/mL
- MRT [3, 7]: 3.58 ± 0.07 h
- Tmax [3, 7]: 2 h
SMILES: C=CCn1c(=O)c2cnc(Nc3ccc(N4CCN(C)CC4)cc3)nc2n1-c1cccc(C(C)(C)O)n1 [Control 1, reference compound]
